Laboratory results reported in ChEMBL document CHEMBL1130935, “Synthesis of a paclitaxel isomer: C-2-acetoxy-C-4-benzoate paclitaxel” (Bioorg Med Chem Lett, 1998).
Calls of active or inactive are those of the source. The rule behind the calls is not given here.

Biological target: Tubulin alpha chain (Sus scrofa) (UniProt P02550)
Assay: Compound was tested for inhibitory activity against tubulin by tubulin polymerization assay; Inactive
Type: functional

Sequence of Tubulin alpha chain (Sus scrofa) (P02550 whole entry, looked up): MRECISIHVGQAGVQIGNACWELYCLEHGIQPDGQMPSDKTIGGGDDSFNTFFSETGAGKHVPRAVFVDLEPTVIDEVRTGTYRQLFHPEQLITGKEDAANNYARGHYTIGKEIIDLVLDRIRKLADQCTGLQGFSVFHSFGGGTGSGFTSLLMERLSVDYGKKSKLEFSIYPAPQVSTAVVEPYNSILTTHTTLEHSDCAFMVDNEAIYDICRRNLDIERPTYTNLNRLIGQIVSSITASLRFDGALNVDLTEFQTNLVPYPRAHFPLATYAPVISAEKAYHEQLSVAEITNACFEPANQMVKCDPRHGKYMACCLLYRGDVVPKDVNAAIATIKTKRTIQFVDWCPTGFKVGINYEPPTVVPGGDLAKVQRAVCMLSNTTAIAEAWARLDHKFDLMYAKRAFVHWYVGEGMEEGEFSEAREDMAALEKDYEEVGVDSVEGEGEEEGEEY

SMILES: CC(=O)O[C@H]1C(=O)[C@]2(C)[C@@H](O)CC3OC[C@@]3(OC(=O)c3ccccc3)[C@H]2[C@H](OC(C)=O)[C@]2(O)C[C@H](OC(=O)[C@H](O)[C@@H](NC(=O)c3ccccc3)c3ccccc3)C(C)=C1C2(C)C (stereo partly specified)
- Activity: inactive
